One experiment deals with p21. Nature of the experiment: Western blotting of p21 protein. Type of experiment: cell-based. As to conditions: MCF7 cells, 10 μM, 48 h. As for the experimental part:
MCF7 cells were treated with compounds for 48 h, at which time, lysates were collected using RIPA buffer with added protease (Roche) and phosphatase (Roche) inhibitors. Electrophoresis was performed using NuPage 4-12% Bis-Tris gels (Invitrogen). Proteins were transferred to a nitrocellulose membrane and probed using antibodies for p21 (Cell Signaling) and GAPDH (Cell Signalling). Chemiluminescence was induced by subsequent incubation with HRP-linked secondary antibodies (GE Healthcare UK Ltd.) and treatment of the membrane with the appropriate ECL solutions (Thermo Scientific). Visualization was accomplished using a ChemiDoc MP System (Bio-Rad), and the raw data files were converted to jpegs using ImageJ (NIH).
(In western blotting, separated proteins are transferred to a membrane and probed.)

Experiment [1] relates to MCF7 cells. Nature of the experiment: SILAC-based global acetylation profiling. As to conditions: compared to DMSO or BRD3811. Type of experiment: cell-based. The text has this: Using these chemical tools, we compared the changes in global acetylation in a representative cell line known to express HDAC8 (i.e. MCF7) after treatment with each compound using Stable Isotope Labeling of Amino Acids in Cell Culture (SILAC)-based quantitative mass spectrometry (MS). (Ververis, K., Karagiannis, T. C. (2012) An atlas of histone deacetylase expression in breast cancer: fluorescence methodology for comparative semi-quantitative analysis. Am. J. Transl. Res. 4, 24-43). […] Global acetylation profiling was completed by digesting cellular proteins with trypsin and enriching the acetylated peptides by immunoprecipitation using an antibody specific for acetylated lysine residues.
MCF7 cells were grown and expanded from the same frozen vial stock, followed by differentially labeling with non-radioactive stable isotopic amino acids by growing in light, medium, and heavy SILAC media (see below for recipe), respectively (Ong, S. E., et al. Mol. Cell Proteomics 5, 376-386 (2002)). […]
EDTA, 2 μg/ml aprotinin (Sigma-Aldrich), 10 μg/ml leupeptin (Roche Applied Science), 1 mM phenylmethylsulfonyl fluoride (PMSF), and 5 mM sodium butyrate (Sigma-Aldrich). […] Protein concentrations were measured using a bicinchoninic acid (BCA) protein assay. […]

Another experiment relates to MCF-7 cells. Nature of the experiment: Global histone modification profiling. Type of experiment: cell-based. As to conditions: 10 μM for 24 h. As to the method:
Each row represents a unique combination of histone modifications (as denoted by “Histone Mark”) and each column represents a treatment of MCF-7 cells with the compound indicated at 10 μM for 24 h. Each compound treatment was performed in biological duplicate (R1 and R2). Each cell is colored by the log2-fold change over the average of the DMSO replicates as denoted in the scale bar. Global histone profiles were obtained in a manner essentially equivalent to a previous report. (Kim, J. H., Yu, S., Chen, J. D., Kong, A. N. (2013) The nuclear cofactor RAC3/AIB1/SRC-3 enhances Nrf2 signaling by interacting with transactivation domains. Oncogene 32, 514-527).

Experiment [2] deals with p21 (CDKN1A) overexpression. The experiment in a line: Connectivity map query analysis of L1000 signatures across cell lines. Type of experiment: cell-based, human. To be noted: across multiple cell lines, relative to 430 overexpressed genes. The text has this:
To assess whether our findings extend beyond the context of a single cell type and to incorporate into our analysis orthogonal biological perturbations, we expanded our gene expression studies using L1000 into several cell lines representative of distinct tissue types: PC3 (prostate), HEPG2 (liver), HCC515 (lung), HAlE (kidney), A375 (skin), A549 (lung), HT29 (colon). […] These candidate substrates of HDAC8 may provide a more targeted approach toward specific cancers (or other diseases) driven by the dysregulation of proteins and/or genes within this HDAC8 network. […] Efforts toward defining the functional consequences of the change in acetylation of these proteins by HDAC8 are ongoing.
The raw expression data are log 2-scaled, quantile normalized, and z-scored, such that a differential expression value is achieved for each gene in each well. In the standard L1000 protocol, each well corresponds to a different perturbagen and these differential expression values are collapsed across replicate wells to yield a differential expression signature for each perturbagen. […] To assess this, we did a meta-analysis of the CMap query results (i.e., lists of perturbations ordered by similarity to an input gene expression signature). […] We performed the same analysis with BRD3811 as well. […]

The test system of experiment [3] is MCF7 cells. The experiment in a line: L1000 gene expression profiling. The experiment is classed as cell-based, human. To be noted: for number of dose-responsive genes with altered expression: approximately 1,000 landmark genes. As for the experimental part:
Cells were incubated for 24 hours at 37° C. in a humidified incubator containing 5% CO2 before treatment.
These 1,000× stock solutions were first diluted (100-fold) in culture medium, and then the diluted compounds were transferred to the cell culture plates using CyBi-well vario 384-well tips (another 10-fold dilution). Ultimately, all compounds were diluted 1,000-fold to their desired serial concentrations with a final DMSO concentration of 0.1%. Treated cells were incubated for 24 hours prior to lysis. […] Cell lysate plates were sealed using a plate sealer, kept at room temperature for 30 minutes, and then frozen at −80° C. until L1000 gene expression profiling was performed.
In this study, we utilize L1000, a high-throughput, bead-based gene expression assay in which mRNA is extracted from cultured human cells treated with various chemical or genomic perturbagens (small molecules, gene knockdowns, or gene over-expression constructs) as previously described.^38 This mRNA is reverse-transcribed into first-strand cDNA. Gene specific probes containing barcodes and universal primer sites are annealed to the first strand cDNA. The probes are ligated to form a template for PCR. The template is PCR amplified with biotinylated-universal primers. The end products are biotinylated, fixed length, barcoded amplicons. The amplicons can then be mixed with Luminex beads that contain complementary barcodes to those encoded in each of the 1000 amplified landmark genes. These 1000 landmark genes were chosen as a reduced representation of the transcriptome and account for the majority of expression variation across many cellular contexts (Subramanian, et al., manuscript in preparation). These beads are then stained with fluorescent streptavidin-phycoerythrin (SAPE) and detected in 384-well plate format on a Luminex FlexMap flow cytometry-based scanner. The resulting readout is a measure of mean fluorescent intensity (MFI) for each landmark gene.

Another experiment has as its target T1, HDAC8 (Homo sapiens, UniProt Q9BY41).
T1 construct: purchased BPS Bioscience
T1 sequence (Q9BY41 1-377): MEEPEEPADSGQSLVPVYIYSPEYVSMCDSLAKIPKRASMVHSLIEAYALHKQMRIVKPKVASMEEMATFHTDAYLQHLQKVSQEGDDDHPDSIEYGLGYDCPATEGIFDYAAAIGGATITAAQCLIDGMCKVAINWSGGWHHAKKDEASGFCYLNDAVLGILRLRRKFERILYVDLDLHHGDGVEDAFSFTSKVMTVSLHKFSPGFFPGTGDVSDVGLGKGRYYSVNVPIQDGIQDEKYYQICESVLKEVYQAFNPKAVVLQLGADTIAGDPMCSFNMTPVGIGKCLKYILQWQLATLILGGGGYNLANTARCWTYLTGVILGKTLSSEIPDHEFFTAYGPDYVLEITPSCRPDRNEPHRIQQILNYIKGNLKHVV
The experiment in a line: Caliper assay, biochemical HDAC IC50. As to conditions: relative to PCI-34051. As for the experimental part: The biochemical determination of HDAC ICsos for compounds was performed as described previously (Zhang, Y.-L. et al., Fluorescent substrates for determining lysine modifying enzyme activity, 2013, Patent Application WO 2013067391). All HDACs were purchased from BPS Bioscience. The substrates Broad Substrate A and Broad Substrate B were synthesized in house, but can be purchased from PerkinElmer (Product number CLS960006 and CLS960007, respectively). All other reagents were purchased from Sigma. Caliper EZ reader II system was used to collect all data. Compounds were tested in duplicate in a 12-point dose curve with 3-fold serial dilution starting from 33.33 μM. Purified HDACs were incubated with 2 μM carboxyfluorescein (FAM)-labeled acetylated or trifluoroacetylated peptide substrate (Broad Substrate A and B, respectively) and test compound for 60 min at room temperature, in an HDAC assay buffer that contained 50 mM HEPES (pH 7.4), 100 mM KCl, 0.01% BSA and 0.001% Tween-20. […] Substrate and product were separated electrophoretically and fluorescence intensity in the substrate and product peaks was determined and analyzed by Labchip EZ Reader. […] Inhibition of HDAC10 and 11 was not measured due to either low purity of the available recombinant HDAC enzyme preparations and/or lack of activity of the enzymes and low substrate conversion.

Results on 2 compounds are retold here after US9745613B2, “Compounds, substrates and methods related to histone deacetylases” (The Broad Institute, Inc., priority 2014, dated 2017).

Take `COc1ccc(Cn2ccc3ccc(C(=O)NO)cc32)cc1` [PCI-34051, reference compound]: the “p21 protein levels (western blot)” value in the experiment on p21 is “increased p21”. The “changes in histone acetylation status” value with MCF7 cells [1] is recorded as “did not observe any significant changes”. The histone acetylation entry in the experiment with MCF-7 cells is “not altered”. In experiment [2], the “average percentile rank of similarity to p21 (CDKN1A) overexpression signature” value is 96 percentile. Besides, in the experiment with MCF7 cells [3] (dose range 0.04 μM-10 μM, 24 h), the “level of the p21 transcript” value was “dose-dependent increase”. The “number of dose-responsive genes with altered expression” value in the experiment with MCF7 cells [3] (dose range 0.04 μM-10 μM) was determined as 70 genes.
For `COc1ccc(Cn2ccc3cc(C)c(C(=O)NO)cc32)cc1` [BRD3811], the “reduction in potency for inhibition of HDAC8” value on HDAC8 is given as 1,000 fold. For the same compound, in experiment [2], the “average percentile rank of similarity to p21 (CDKN1A) overexpression signature” value worked out at 66 percentile. In addition, in the experiment with MCF7 cells [3] (MCF7, 10 uM, 24 h), the “fold_change_at_10_uM CDKN1A (202284_s_at)” value is recorded as 1.956, the “fold_change_at_10_uM CSNK1A1 (206562_s_at)” value came out at 1.623, the “fold_change_at_10_uM DUSP3 (201536_at)” value is recorded as 1.586 and the “fold_change_at_10_uM ERBB2 (216836_s_at)” value is on record as 1.614. Also, in the experiment with MCF7 cells [3] (MCF7, 10 uM, 24 h), the “fold_change_at_10_uM GHR (205498_at)” value worked out at 0.7287, the “fold_change_at_10_uM HMGA2 (208025_s_at)” value stood at 0.6073, the “fold_change_at_10_uM HMOX1 (203665_at)” value is reported as 2.067 and the “fold_change_at_10_uM PRSS23 (202458_at)” value turned out to be 0.6507. In the experiment with MCF7 cells [3] (MCF7, 10 uM, 24 h), the “fold_change_at_10_uM SLC25A46 (212833_at)” value came to 0.5635, the “fold_change_at_10_uM TXNRD1 (201266_at)” value was 1.298 and the “fold_change_at_10_uM VAT1 (208626_s_at)” value was determined as 1.389. In addition, the “level of the p21 transcript” value with MCF7 cells [3] (dose range 0.04 μM-10 μM, 24 h) is “increased the level of p21 transcript only at the highest dose tested”. Besides, the “number of dose-responsive genes with altered expression” value with MCF7 cells [3] (dose range 0.04 M-10 M) stood at 11 genes.
